Measurements from US12234230B2, “Substituted benzyl-triazole compounds for Cbl-b inhibition, and further uses thereof” (Nurix Therapeutics, Inc., priority 2019, dated 2025).
Read-outs that look alike come from different tables or passages of the source.

Tests used:
[1] = tested on: primary human total T-cells; assay: Primary human total T-cell activation (IL-2 secretion, CD25 surface staining), Biological Example 2; conditions: fold change over baseline; for CD25 staining CD3/CD28 0.3 μM / IL-2 secretion CD3/CD28 0.3 μM: 0.3 μM inhibitor; for CD25 staining CD3/CD28 0.3 μM / IL-2 secretion CD3/CD28 0.3 μM / CD25 staining CD3/CD28 1 μM / IL-2 secretion CD3/CD28 1 μM: anti-CD3 and anti-CD28 co-stimulation; for CD25 staining CD3/CD28 1 μM / IL-2 secretion CD3/CD28 1 μM / CD25 staining CD3 1 μM / IL-2 secretion CD3 1 μM: 1 μM inhibitor; for CD25 staining CD3 1 μM / IL-2 secretion CD3 1 μM / CD25 staining CD3 3 μM / IL-2 secretion CD3 3 μM: anti-CD3 stimulation alone; for CD25 staining CD3 3 μM / IL-2 secretion CD3 3 μM: 3 μM inhibitor
Cbl-b = Cbl-b (Homo sapiens (Human), UniProt Q13191); assay: Cbl-b displacement assay (Cbl-b inhibition assay), Biological Example 1; format: binding
Cbl-b, sequence (Q13191 36-427): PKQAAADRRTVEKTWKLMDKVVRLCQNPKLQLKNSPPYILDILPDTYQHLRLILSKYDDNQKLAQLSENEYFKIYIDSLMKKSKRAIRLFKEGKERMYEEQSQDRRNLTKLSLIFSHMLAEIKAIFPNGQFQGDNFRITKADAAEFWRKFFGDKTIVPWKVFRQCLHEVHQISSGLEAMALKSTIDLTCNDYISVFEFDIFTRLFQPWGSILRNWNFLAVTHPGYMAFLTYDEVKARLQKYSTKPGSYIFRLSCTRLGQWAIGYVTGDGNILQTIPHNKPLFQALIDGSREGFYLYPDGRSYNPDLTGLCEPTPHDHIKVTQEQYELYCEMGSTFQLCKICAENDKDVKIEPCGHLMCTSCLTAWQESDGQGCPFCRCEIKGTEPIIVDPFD
Description: The ability of candidate compounds to displace a known inhibitor and thereby inhibit Cbl-b activity was measured by monitoring the interaction of Cbl-b with a fluorophore-labeled probe in the presence of the candidate compound.
Following the one hour incubation, the plates were read for TR-FRET signal at 520/620 nm using an Envision plate reader (Perkin Elmer).

[2] = 0.125 nM Cbl-b final concentration (Low), read-out: Cbl-b activity IC50 (Low)
[3] = read-out: IC50 values in the Cbl-b inhibition assay of Biological Example 1
[4] = 0.5 nM Cbl-b final concentration (High), read-out: Cbl-b activity IC50 (High)

Compound: C[C@@H]1CN(Cc2cc3c(c(C(F)(F)F)c2)CN(c2cccc([C@@H](c4nncn4C)C4CCC4)c2)C3=O)CCO1 [Compound 15, 2-(3-((S)-cyclobutyl(4-methyl-4H-1,2,4-triazol-3-yl)methyl)phenyl)-6-(((R)-2-methylmorpholino)methyl)-4-(trifluoromethyl)isoindolin-1-one]
- CD25 staining CD3/CD28 0.3 μM [1]: B (B indicates 1.24-1.39 fold)
- IL-2 secretion CD3/CD28 0.3 μM [1]: C (C indicates <20 fold)
- CD25 staining CD3/CD28 1 μM [1]: B (B indicates 1.24-1.39 fold)
- IL-2 secretion CD3/CD28 1 μM [1]: C (C indicates <20 fold)
- CD25 staining CD3 1 μM [1]: C (C indicates <1.5 fold)
- IL-2 secretion CD3 1 μM [1]: C (C indicates <0.70 fold)
- CD25 staining CD3 3 μM [1]: C (C indicates <1.5 fold)
- IL-2 secretion CD3 3 μM [1]: C (C indicates <0.70 fold)
- IC50 (Cbl-b; [2]): 5 to 20 nM
- IC50 (Cbl-b; [3]): 5 to 20 nM

Compound: C[C@@H]1CN(Cc2cc3c(c(C(F)(F)F)c2)CN(c2cccc([C@]4(c5nncn5C)C[C@@H](O)C4)c2)C3=O)CCC1(F)F [Compound 31, 6-(((R)-4,4-difluoro-3-methylpiperidin-1-yl)methyl)-2-(3-((1s,3S)-3-hydroxy-1-(4-methyl-4H-1,2,4-triazol-3-yl)cyclobutyl)phenyl)-4-(trifluoromethyl)isoindolin-1-one]
- IL-2 secretion CD3/CD28 0.3 μM [1]: C (C indicates <20 fold)
- IL-2 secretion CD3/CD28 1 μM [1]: C (C indicates <20 fold)
- CD25 staining CD3 1 μM [1]: C (C indicates <1.5 fold)
- IL-2 secretion CD3 1 μM [1]: C (C indicates <0.70 fold)
- CD25 staining CD3 3 μM [1]: B (B indicates 1.5-2.5 fold)
- IL-2 secretion CD3 3 μM [1]: C (C indicates <0.70 fold)
- IC50 (Cbl-b; [2]): 5 to 20 nM

Compound: C[C@H]1CCCN(Cc2cc3c(c(C(F)(F)F)c2)CN(c2cccc([C@@H](c4nncn4C)C4CCC4)c2)C3=O)C1 [Compound 4, 2-(3-((S)-cyclobutyl(4-methyl-4H-1,2,4-triazol-3-yl)methyl)phenyl)-6-(((S)-3-methylpiperidin-1-yl)methyl)-4-(trifluoromethyl)isoindolin-1-one]
- IC50 (Cbl-b; [2]): < 5 nM
- IC50 (Cbl-b; [3]): ≤ 5 nM

Compound: Cn1cnnc1[C@@H](c1cccc(N2Cc3c(cccc3C(F)(F)F)C2=O)c1)C1CCC1 [Compound 8, (R)-2-(3-(cyclobutyl(4-methyl-4H-1,2,4-triazol-3-yl)methyl)phenyl)-4-(trifluoromethyl)isoindolin-1-one]
- IC50 (Cbl-b; [4]): 5 to 20 nM
- IC50 (Cbl-b; [3]): 5 to 20 nM

Compound: C[C@H]1CCCN(Cc2cc3c(c(C(F)(F)F)c2)CN(c2cccc([C@]4(c5nncn5C)C[C@H](O)C4)c2)C3=O)C1 [Compound 35, 2-(3-((1r,3S)-3-hydroxy-1-(4-methyl-4H-1,2,4-triazol-3-yl)cyclobutyl)phenyl)-6-(((S)-3-methylpiperidin-1-yl)methyl)-4-(trifluoromethyl)isoindolin-1-one]
- CD25 staining CD3/CD28 0.3 μM [1]: B (B indicates 1.24-1.39 fold)
- IL-2 secretion CD3/CD28 0.3 μM [1]: B (B indicates 20-35 fold)
- CD25 staining CD3/CD28 1 μM [1]: B (B indicates 1.24-1.39 fold)
- IL-2 secretion CD3/CD28 1 μM [1]: B (B indicates 20-35 fold)
- CD25 staining CD3 1 μM [1]: A (A indicates >2.5 fold)
- IL-2 secretion CD3 1 μM [1]: B (B indicates 0.70-1.1 fold)
- CD25 staining CD3 3 μM [1]: A (A indicates >2.5 fold)
- IL-2 secretion CD3 3 μM [1]: B (B indicates 0.70-1.1 fold)
- IC50 (Cbl-b; [2]): < 5 nM

Compound: C[C@H]1CCCN(Cc2cc3c(c(C(F)(F)F)c2)CN(c2cccc(C4(c5nncn5C)COC4)c2)C3=O)C1 [Compound 46, 6-[[(3S)-3-methyl-1-piperidyl]methyl]-2-[3-[3-(4-methyl-1,2,4-triazol-3-yl)oxetan-3-yl]phenyl]-4-(trifluoromethyl)isoindolin-1-one]
- CD25 staining CD3/CD28 0.3 μM [1]: B (B indicates 1.24-1.39 fold)
- IL-2 secretion CD3/CD28 0.3 μM [1]: A (A indicates >35 fold)
- CD25 staining CD3/CD28 1 μM [1]: B (B indicates 1.24-1.39 fold)
- IL-2 secretion CD3/CD28 1 μM [1]: A (A indicates >35 fold)
- CD25 staining CD3 1 μM [1]: B (B indicates 1.5-2.5 fold)
- IL-2 secretion CD3 1 μM [1]: A (A indicates >1.1 fold)
- CD25 staining CD3 3 μM [1]: A (A indicates >2.5 fold)
- IL-2 secretion CD3 3 μM [1]: A (A indicates >1.1 fold)
- IC50 (Cbl-b; [2]): < 5 nM

Compound: CO[C@H]1C[C@@](c2cccc(N3Cc4c(cc(CN5CCC(F)(F)[C@H](C)C5)cc4C(F)(F)F)C3=O)c2)(c2nncn2C)C1 [Compound 33, 6-(((R)-4,4-difluoro-3-methylpiperidin-1-yl)methyl)-2-(3-((1s,3S)-3-methoxy-1-(4-methyl-4H-1,2,4-triazol-3-yl)cyclobutyl)phenyl)-4-(trifluoromethyl)isoindolin-1-one]
- CD25 staining CD3/CD28 0.3 μM [1]: B (B indicates 1.24-1.39 fold)
- IL-2 secretion CD3/CD28 0.3 μM [1]: C (C indicates <20 fold)
- IL-2 secretion CD3/CD28 1 μM [1]: B (B indicates 20-35 fold)
- CD25 staining CD3 1 μM [1]: A (A indicates >2.5 fold)
- IL-2 secretion CD3 1 μM [1]: A (A indicates >1.1 fold)
- CD25 staining CD3 3 μM [1]: A (A indicates >2.5 fold)
- IL-2 secretion CD3 3 μM [1]: A (A indicates >1.1 fold)
- IC50 (Cbl-b; [2]): 5 to 20 nM

Compound: C[C@H]1CCCN(Cc2cc3c(c(C(F)(F)F)c2)CN(c2cccc([C@]4(c5nncn5C)C[C@H](CC#N)C4)c2)C3=O)C1 [Compound 50, 2-((1S,3r)-3-(4-methyl-4H-1,2,4-triazol-3-yl)-3-(3-(6-(((S)-3-methylpiperidin-1-yl)methyl)-1-oxo-4-(trifluoromethyl)isoindolin-2-yl)phenyl)cyclobutyl)acetonitrile]
- IL-2 secretion CD3/CD28 0.3 μM [1]: A (A indicates >35 fold)
- IL-2 secretion CD3/CD28 1 μM [1]: A (A indicates >35 fold)
- CD25 staining CD3 1 μM [1]: A (A indicates >2.5 fold)
- IL-2 secretion CD3 1 μM [1]: A (A indicates >1.1 fold)
- CD25 staining CD3 3 μM [1]: A (A indicates >2.5 fold)
- IL-2 secretion CD3 3 μM [1]: A (A indicates >1.1 fold)
- IC50 (Cbl-b; [2]): < 5 nM

Compound: Cc1cc(C(=O)Nc2cccc([C@H](c3nncn3C)C3CCC3)c2)nc(C2CC2)n1 [Compound 13, (R)—N-(3-(cyclobutyl(4-methyl-4H-1,2,4-triazol-3-yl)methyl)phenyl)-2-cyclopropyl-6-methylpyrimidine-4-carboxamide]
- IL-2 secretion CD3/CD28 0.3 μM [1]: C (C indicates <20 fold)
- IL-2 secretion CD3/CD28 1 μM [1]: C (C indicates <20 fold)
- CD25 staining CD3 1 μM [1]: C (C indicates <1.5 fold)
- CD25 staining CD3 3 μM [1]: C (C indicates <1.5 fold)
- IC50 (Cbl-b; [4]): > 100 nM

Compound: C[C@@H]1CN(Cc2cc3c(c(C(F)(F)F)c2)CN(c2cccc([C@]4(c5nncn5C)C[C@@H](CC#N)C4)c2)C3=O)CCC1(F)F [Compound 49, 2-((1S,3s)-3-(3-(6-(((R)-4,4-difluoro-3-methylpiperidin-1-yl)methyl)-1-oxo-4-(trifluoromethyl)isoindolin-2-yl)phenyl)-3-(4-methyl-4H-1,2,4-triazol-3-yl)cyclobutyl)acetonitrile]
- CD25 staining CD3/CD28 0.3 μM [1]: B (B indicates 1.24-1.39 fold)
- IL-2 secretion CD3/CD28 0.3 μM [1]: A (A indicates >35 fold)
- CD25 staining CD3/CD28 1 μM [1]: B (B indicates 1.24-1.39 fold)
- IL-2 secretion CD3/CD28 1 μM [1]: A (A indicates >35 fold)
- CD25 staining CD3 1 μM [1]: A (A indicates >2.5 fold)
- IL-2 secretion CD3 1 μM [1]: A (A indicates >1.1 fold)
- CD25 staining CD3 3 μM [1]: A (A indicates >2.5 fold)
- IL-2 secretion CD3 3 μM [1]: A (A indicates >1.1 fold)
- IC50 (Cbl-b; [2]): < 5 nM

Compound: Cn1cnnc1C1(c2cccc(N3Cc4c(cccc4C(F)(F)F)C3=O)c2)CCOC1 (stereo not shown) [Compound 10, 2-(3-(3-(4-methyl-4H-1,2,4-triazol-3-yl)tetrahydrofuran-3-yl)phenyl)-4-(trifluoromethyl)isoindolin-1-one]
- IC50 (Cbl-b; [2]): > 100 nM

Compound: Cn1cnnc1C(c1cccc(N2Cc3c(cccc3C(F)(F)F)C2=O)c1)C1COC1 (stereo not shown) [Compound 7, 2-(3-((4-methyl-4H-1,2,4-triazol-3-yl)(oxetan-3-yl)methyl)phenyl)-4-(trifluoromethyl)isoindolin-1-one]
- IC50 (Cbl-b; [2]): > 100 nM
- IC50 (Cbl-b; [3]): > 100 nM

Compound: Cn1cnnc1[C@]1(c2cccc(N3Cc4c(cc(CN5CCO[C@H](CC#N)C5)cc4C(F)(F)F)C3=O)c2)C[C@H](C)C1 [Compound 30, 2-((R)-4-((2-(3-((1s,3S)-3-methyl-1-(4-methyl-4H-1,2,4-triazol-3-yl)cyclobutyl)phenyl)-3-oxo-7-(trifluoromethyl)isoindolin-5-yl)methyl)morpholin-2-yl)acetonitrile]
- IC50 (Cbl-b; [2]): 5 to 20 nM

Compound: Cn1cnnc1[C@H](c1cccc(N2Cc3c(cccc3C(F)(F)F)C2=O)c1)C1CCC1 [Compound 9, (S)-2-(3-(cyclobutyl(4-methyl-4H-1,2,4-triazol-3-yl)methyl)phenyl)-4-(trifluoromethyl)isoindolin-1-one]
- IC50 (Cbl-b; [4]): > 100 nM

Compound: C[C@H]1CCCN(Cc2cc3c(c(C4CC4)n2)CN(c2cccc([C@@H](c4nncn4C)C4CCC4)c2)C3=O)C1 [Compound 6, 2-(3-((S)-cyclobutyl(4-methyl-4H-1,2,4-triazol-3-yl)methyl)phenyl)-4-cyclopropyl-6-(((S)-3-methylpiperidin-1-yl)methyl)-2,3-dihydro-1H-pyrrolo[3,4-c]pyridin-1-one]
- IC50 (Cbl-b; [2]): 20 to 100 nM
- IC50 (Cbl-b; [3]): 20 to 100 nM

Compound: CC[C@@H]1CN(Cc2cc3c(c(C(F)(F)F)c2)CN(c2cccc([C@]4(c5nncn5C)C[C@@H](C)C4)c2)C3=O)CCO1 [Compound 28, 6-(((R)-2-ethylmorpholino)methyl)-2-(3-((1s,3S)-3-methyl-1-(4-methyl-4H-1,2,4-triazol-3-yl)cyclobutyl)phenyl)-4-(trifluoromethyl)isoindolin-1-one]
- IC50 (Cbl-b; [2]): 5 to 20 nM
